Values of other authors as cited in patent publication US6491840B1, “Polymer compositions having specified PH for improved dispensing and improved stability of wrinkle reducing compositions and methods of use” (The Procter & Gamble Company, priority 2000, dated 2002).

## ClC=CC[N+]12CN3CN(CN(C3)C1)C2.[Cl-] [Dowicil 200, 1-(3-Chlorallyl)-3,5,7-triaza-1-azoniaadamantane chloride]
  solubility in water: freely soluble in water
